Experiment [1] deals with ftsQ1p2p-lacZ reporter (SdiA). In words: SdiA regulated ftsQ1p2p-lacZ reporter assay. The class given is cell-based, E. coli. As to conditions: 10% osmotic shock fluids containing AI-2 activity, 2 h. The text has this: Analysis of the effect of autoinducer on SdiA regulated gene expression. A sequence that includes the ftsQ1p and ftsQ2p promoters (Wang et al., 1991, supra) was amplified from E. coli MG1655 chromosomal DNA using the following primers: • ftsQ1p, 5′-[…]-3′ (SEQ ID NO: 19); • ftsQ2p, 5′-[…]-3′ (SEQ ID NO: 20).
The amplified product contained both the ftsQ promoters and the first 14 codons of the ftsQ gene flanked by BamHI and Bg1II sites. The ftsQ1p2p PCR product was cloned into the BamHI site of vector pMLB1034 (Silhavy et al., Experiments with Gene Fusions, Cold Spring Harbor Press, 1984) to generate a lacZ fusion that contained the promoters, ribosome binding site, and initiation codon of ftsQ. A correctly oriented clone, pMS207, and a clone containing the ftsQ1p2p insert in the opposite orientation, pMS209, were chosen for further analysis. Both inserts were sequenced to ensure that no errors were introduced during the PCR reaction.
For ftsQ regulation in E. coli, the plasmids pMS207 and pMS209 were transformed into E. coli strain MC4100 (Silhavy et al., 1984, supra), and the transformants were grown overnight in LB containing 100 mg/L ampicillin at 30° C. with aeration. For rck regulation, S. typhimurium strains BA1105 (rck::MudJ) and BA1305 (rck::MudJ sdiA) were grown overnight in LB containing 100 mg/L kanamycin at 30° C. with aeration. […]
A general note: In a reporter assay the amount or activity of a reporter protein is the signal.

Experiment [2] concerns the target T1, Lsr ABC transporter (Salmonella typhimurium, UniProt Q8ZKQ1).
T1 construct: containing a wild type lsr operon; endogenous in cells; host or cells: S. typhimurium 14028 derivatives in a luxS null background (parent SS007, luxS::T-POP; also MET342, ΔlsrR)
In words: Removal of exogenous AI-2 from S. typhimurium culture fluids. The format is cell-based. As to conditions: for input AI-2 activity remaining: wild type lsrR strain. As for the experimental part: (§1) Cultures of S. typhimurium luxS null strains containing a wild type lsr operon or containing mutations inactivating lsr genes were grown to mid-exponential phase in LB at 37° C. AI-2 prepared by our in vitro method was added to the cultures, and the cultures were incubated with the AI-2 for an hour. Subsequently, the cells were removed from the culture fluid by centrifugation, and the resulting cell-free culture fluids were assayed for AI-2 activity using the V. harveyi AI-2 bioassay. This assay involves measuring the increase in light production of a V. harveyi quorum sensing reporter strain that induces bioluminescence exclusively in response to the presence of AI-2. In the present experiment, the bioassay allowed us to determine the level of AI-2 activity remaining in the culture fluids of the different S. typhimurium mutants. Since all the S. typhimurium strains we used in this experiment contained null mutations in luxS, the only AI-2 that could be present in the cell-free culture fluids came from that that we added exogenously.
(§2) Relative levels of AI-2 in cell-free culture fluids of S. typhimurium strains of interest were measured using a V. harveyi bioluminescence assay, as described previously (Bassler et al., 1993; Bassler et al., 1997). Cell-free culture fluids were prepared as described (Surette and Bassler, 1998; Surette et al., 1999). These preparations were assayed for AI-2 activity at 10% (vol/vol), using V. harveyi reporter strain BB170 (luxN::Tn5), as described (Bassler et al., 1993). AI-2 activity is reported as fold induction over background of bioluminescence. To examine the role of Lsr in the uptake of AI-2, cultures of S. typhimurium were grown overnight, diluted 1:100 into fresh LB, and grown for a total of 4 hours. During the final hour of growth, the cells were incubated with 70 μM in vitro prepared AI-2 for specified times (Schauder et al., 2001). Subsequently, the cultures were chilled on ice and cell-free culture fluids were prepared. The AI-2 remaining in these preparations was measured in the V. harveyi bioluminescence assay. Assays were performed in duplicate.

For experiment [3], the system named is Lsr ABC transporter. The description is as above. Particulars: 1 h. The format is cell-based. As to the method: as §1, §2
Another experiment concerns wild type S. typhimurium. In words: Growth on AI-2 as sole carbon source. The class given is cell-based. The text has this:
One possibility is that AI-2 is initially used as a signal, then, at subsequent times, when AI-2 is no longer required for signal transduction, S. typhimurium internalizes it for use as a carbon source. To test this idea, we attempted to grow wild type S. typhimurium on in vitro prepared AI-2 as a sole carbon source. […] Therefore, growth on AI-2 cannot account for its disappearance from the medium. A second possibility is that the removal of AI-2 activity is required for its modification to another signal. For example, the LsrE epimerase, or another enzyme, could convert AI-2 into an internal signal. Finally, AI-2 could be internalized for degradation. In this case, elimination of AI-2 could serve to terminate the signalling process. Signal production coupled to subsequent elimination could allow S. typhimurium the flexibility to transition between several modes of existence. For example, as AI-2 is associated with the presence of many species of bacteria, high levels of AI-2 could be indicative of the transition from outside a host to the intestinal environment, whereas low levels of AI-2 could signal S. typhimurium that it has exited the intestinal tract for the next location in the infection (i.e., the macrophage) where S. typhimurium is not in association with high numbers of commensal bacteria. […]

Where [4] appears, read: wild type lsr strain (luxS null), 1 h incubation.

With `CC(=O)C(=O)C(O)CO` (stereo not drawn) [AI-2, 4,5-dihydroxy-2,3-pentanedione], the “change in β-galactosidase level of MC4100/pMS207” value in experiment [1] is “this level of activity did not change under any of the conditions tested here”. In addition, the “activity gone from the culture fluids” value on Lsr ABC transporter [2] (inactivation of lsrR, 1 h incubation) is “over 99%”. In addition, at Lsr ABC transporter [2] (setting [4]), the “AI-2 activity remaining (induction of the bioassay strain)” value is recorded as 80 fold. For the same molecule, on Lsr ABC transporter [2] (setting [4]), the “disappearance of AI-2 activity from the culture fluid” value is on record as 92%. The “input AI-2 activity remaining” value at Lsr ABC transporter [2] (2 min) stood at 97%; on Lsr ABC transporter [2] (15 min), 85%; at Lsr ABC transporter [2] (30 min), 82%; at Lsr ABC transporter [2] (45 min) it was 75%; at Lsr ABC transporter [2] (60 min), 6%. Further, the “elimination of AI-2 from the culture fluids” value with Lsr ABC transporter [3] (MudJ insertion mutants in lsrA, lsrC and lsrB) is reported as “unable to eliminate AI-2 from the culture fluids”. Further, the “level of AI-2 versus input” value with Lsr ABC transporter [3] (ΔlsrR, lsrC::MudJ double mutant) is recorded as “the level of AI-2 did not decrease compared to the input activity”. The “growth on in vitro prepared AI-2 as a sole carbon source” value in the experiment on wild type S. typhimurium is “could not grow on AI-2”.

The record behind these values is patent US7183099B2, “Inhibitors of autoinducer transporters” (Princeton University, priority 2001, dated 2007).
